# In ChEMBL document CHEMBL6127085, “Design, synthesis and evaluation of novel LpxC inhibitors containing a hydrazone moiety as Gram-negative antibacterial agents” (Eur J Med Chem, 2024):
# What was measured:
# [1] = system: Escherichia coli; experiment: Antibacterial activity against Escherichia coli ATCC25922 assessed as reduction in bacterial growth measured after 18 to 24 hrs by CLSI protocol based method; format: functional; settings: time 18-24 hrs
# [2] = Intrinsic clearance in mouse; format: ADME, organism-based; settings: read-out: CLH
# [3] = system: Klebsiella pneumoniae; experiment: Antibacterial activity against Klebsiella pneumoniae clinical isolate KPN+22-1 assessed as reduction in bacterial growth measured after 18 to 24 hrs by CLSI protocol based method; format: functional; settings: time 18-24 hrs
# [4] = system: Pseudomonas aeruginosa; experiment: Antibacterial activity against Pseudomonas aeruginosa clinical isolate PAE22-1 assessed as reduction in bacterial growth measured after 18 to 24 hrs by CLSI protocol based method; format: functional; settings: time 18-24 hrs
# [5] = Metabolic stability in human liver microsomes assessed as intrinsic clearance at 1 uM preincubated for 5 mins followed by NADPH addition and measured after 5 to 60 mins by LC-MS analysis; format: ADME, Microsome; settings: time 10-65 min, read-out: CLH
# [6] = Metabolic stability in mouse liver microsomes assessed as intrinsic clearance at 1 uM preincubated for 5 mins followed by NADPH addition and measured after 5 to 60 mins by LC-MS analysis; format: ADME, Microsome; settings: liver microsomes, time 10-65 min, read-out: CLH
# [7] = system: Pseudomonas aeruginosa; experiment: Antibacterial activity against Pseudomonas aeruginosa ATCC27853 assessed as reduction in bacterial growth measured after 18 to 24 hrs by CLSI protocol based method; format: functional; settings: time 18-24 hrs
# [8] = Metabolic stability in human liver microsomes assessed as half life at 1 uM preincubated for 5 mins followed by NADPH addition and measured after 5 to 60 mins by LC-MS analysis; format: ADME, Microsome; settings: liver microsomes, time 10-65 min
# [9] = Metabolic stability in rat liver microsomes assessed as intrinsic clearance at 1 uM preincubated for 5 mins followed by NADPH addition and measured after 5 to 60 mins by LC-MS analysis; format: ADME, Microsome; settings: liver microsomes, time 10-65 min, read-out: CLH
# [10] = system: Klebsiella pneumoniae; experiment: Antibacterial activity against Klebsiella pneumoniae ATCC700603 assessed as reduction in bacterial growth measured after 18 to 24 hrs by CLSI protocol based method; format: functional; settings: time 18-24 hrs
# [11] = Intrinsic clearance in human; format: ADME; settings: read-out: CLH
# [12] = Metabolic stability in mouse liver microsomes assessed as half life at 1 uM preincubated for 5 mins followed by NADPH addition and measured after 5 to 60 mins by LC-MS analysis; format: ADME, Microsome; settings: liver microsomes, time 10-65 min
# [13] = Intrinsic clearance in rat; format: ADME; settings: read-out: CLH
# [14] = Metabolic stability in rat liver microsomes assessed as half life at 1 uM preincubated for 5 mins followed by NADPH addition and measured after 5 to 60 mins by LC-MS analysis; format: ADME, Microsome; settings: liver microsomes, time 10-65 min
MIC [1] [µg/mL],CLint scaled [2] [mL/min/kg],MIC [3] [µg/mL],MIC [4] [µg/mL],microsomal CLint at 1 µM [5] [µL/min/mg],microsomal CLint at 1 µM [6] [µL/min/mg],MIC [7] [µg/mL],half-life at 1 µM [8] [h],microsomal CLint at 1 µM [9] [µL/min/mg],MIC [10] [µg/mL],CLint scaled [11] [mL/min/kg],half-life at 1 µM [12] [h],CLint scaled [13] [mL/min/kg],half-life at 1 µM [14] [h],Structure (SMILES)
0.03,28.5,2,4,4.51,7.23,4,5.15,6.7,16,4.26,3.37,12.1,3.5,CCC(=O)N1CCN(/N=C/c2ccc(C#Cc3ccc(C(=O)N[C@H](C(=O)NO)[C@@H](C)O)cc3)cc2)CC1
0.5,,> 64,> 64,,,> 64,,,> 64,,,,,C[C@@H](O)[C@H](NC(=O)c1ccc(C#Cc2ccc(/C=N/N3CCN(S(C)(=O)=O)CC3)cc2)cc1)C(=O)NO
1,,8,16,,,> 64,,,> 64,,,,,C[C@@H](O)[C@H](NC(=O)c1ccc(C#Cc2ccc(/C=N/N3CCN(C(=O)OC(C)(C)C)CC3)cc2)cc1)C(=O)NO
0.5,,2,4,,,8,,,16,,,,,C[C@@H](O)[C@H](NC(=O)c1ccc(C#Cc2ccc(/C=N/N3CCN(C(=O)N(C)C)CC3)cc2)cc1)C(=O)NO
> 64,,> 64,> 64,,,,,,,,,,,O=C(NO)C1CN(c2ccc(C#Cc3ccc(/C=N/N4CCCC4)cc3)cc2)C(=O)O1 (stereo not drawn)
1,,4,4,,,4,,,16,,,,,C[C@@H](O)[C@H](NC(=O)c1ccc(C#Cc2ccc(/C=N/N3CCS(=O)(=O)CC3)cc2)cc1)C(=O)NO
2,,32,32,,,> 64,,,> 64,,,,,C[C@@H](O)[C@H](NC(=O)c1ccc(C#Cc2ccc(/C=N/N3CCN(C4CCCC4)CC3)cc2)cc1)C(=O)NO
1,,2,2,,,2,,,8,,,,,C[C@@H](O)[C@H](NC(=O)c1ccc(C#Cc2ccc(/C=N/N3CCN(C)CC3)cc2)cc1)C(=O)NO
0.25,,1,4,,,32,,,32,,,,,C[C@@H](O)[C@H](NC(=O)c1ccc(C#Cc2ccc(/C=N/N3CCCCC3)cc2)cc1)C(=O)NO
2,,> 64,4,,,> 64,,,,,,,,C[C@@H](O)[C@H](NC(=O)c1ccc(C#Cc2ccc(/C=N/N3CCCC3)nc2)cc1)C(=O)NO
0.25,36.6,8,> 32,19.4,9.29,> 32,1.37,15.6,> 32,18.4,2.53,28.1,1.48,C[C@@H](O)[C@H](NC(=O)c1ccc(C#Cc2ccc(/C=N/N3CCN(C(=O)C(C)(C)C)CC3)cc2)cc1)C(=O)NO
2,,32,8,,,16,,,> 64,,,,,CCOC(=O)N1CCN(/N=C/c2ccc(C#Cc3ccc(C(=O)N[C@H](C(=O)NO)[C@@H](C)O)cc3)cn2)CC1
1,,8,> 64,,,,,,,,,,,O=C(NO)C1CN(c2ccc(C#Cc3ccc(/C=N/N4CCOCC4)cc3)cc2)C(=O)O1 (stereo not drawn)
